# Assay results from patent US11261179B2, “Small molecules” (University of Dundee, priority 2017, dated 2022).
# Target: T1, VCB (biotinylated VCB and His-VCB) (Homo sapiens, UniProt P40337)
# T1 construct: His tag (printed 'Hiss-VCB'); biotin (chemical labelling with NHS-PEG4-biotin); on the other VCB population
# Assay: AlphaLISA proximity assay of ternary complex formation
# Type: binding
# Conditions: VCB 20 nM each, 0.5 to 200 nM Homo-PROTAC
# Protocol: The VCB complex was mixed with EZ-link NHS-PEG4-biotin (Thermo Scientific) in a 1:1 molar ratio and incubated at room temperature for 1 h. The reaction was quenched using 1 M Tris-HCl, pH 7.5, and unreacted NHS-biotin was removed with a PD-10 MiniTrap desalting column (GE Healthcare) equilibrated with 20 mM HEPES, pH 7.5, 150 mM NaCl and 1 mM DTT.
# All assays were performed at room temperature in 384-well plates with a final assay volume of 25 μL per well; plates were sealed with transparent film between addition of reagents. All reagents were prepared as 5× stocks diluted in 50 mM HEPES, pH 7.5, 100 mM NaCl, 0.1% (w/v) bovine serum albumin and 0.02% (w/v) 3-[(cholamidopropyl)dimethylammonio]-1-propanesulfonate (CHAPS). Biotinylated VCB (20 nM final) and Hiss-VCB (20 nM final) were incubated with a range of Homo-PROTAC concentrations (0.5 to 200 nM; three-in-five serial dilution) for 1 h. Anti-His acceptor beads (PerkinElmer, 10 μg/mL final) were added and plates were incubated for another hour. Streptavidin-coated donor beads (PerkinElmer, 10 μg/mL final) were added and plates were incubated for a final 1 h. Plates were read on a PHERAstar FS (BMG Labtech) using an optic module with an excitation wavelength of 680 nm and emission wavelength of 615 nm. Intensity values were plotted against PROTAC concentration on a logo scale.
# T1 sequence (P40337 54-213 limits assumed): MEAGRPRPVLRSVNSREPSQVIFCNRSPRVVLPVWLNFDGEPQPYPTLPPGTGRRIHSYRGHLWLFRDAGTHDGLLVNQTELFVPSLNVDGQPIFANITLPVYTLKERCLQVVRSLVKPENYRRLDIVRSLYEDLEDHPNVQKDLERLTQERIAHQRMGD
# T1 sequence (Q15370 1-104 partner limits assumed): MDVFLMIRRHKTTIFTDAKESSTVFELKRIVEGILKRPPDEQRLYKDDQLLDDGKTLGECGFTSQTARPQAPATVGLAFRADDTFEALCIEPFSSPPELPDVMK
# T1 sequence (Q15369 17-112 partner limits assumed): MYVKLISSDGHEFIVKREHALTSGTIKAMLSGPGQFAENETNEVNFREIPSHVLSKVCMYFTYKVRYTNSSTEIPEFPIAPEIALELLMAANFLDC
compound,measurement,value
"Cc1ncsc1-c1ccc(CNC(=O)[C@@H]2C[C@@H](O)CN2C(=O)[C@@H](NC(=O)COCCOCCOCCOCCOCCOCC(=O)N[C@H](C(=O)N2C[C@H](O)C[C@H]2C(=O)NCc2ccc(-c3scnc3C)cc2)C(C)(C)C)C(C)(C)C)cc1 [CM11, N^1,N^20-bis((S)-1-((2S,4R)-4-hydroxy-2-((4-(4-methylthiazol-5-yl)benzyl)carbamoyl)pyrrolidin-1-yl)-3,3-dimethyl-1-oxobutan-2-yl)-3,6,9,12,15,18-hexaoxaicosanediamide]",AlphaLISA intensity signal / complex formation,highest intensity signal
